Measurements reported in US6465457B1 (priority 1991, dated 2002).
Like-named read-outs stand apart in the source and are kept apart here.

Experiments:
Type in all cases: in vivo
[1] = tested on: Pyricularia oryzae (Rice); settings: one or two days before inoculation
[2] = tested on: Phytophthora infestans (Tomatoes); settings: one or two days before inoculation
[3] = tested on: Plasmopara viticola (Vines); test: Foliar fungal disease test on plants: Plasmopara viticola (Vines); settings: one or two days before inoculation
Procedure: (§1) The compounds were tested against a variety of foliar fungal diseases of plants. The technique employed was as follows.
(§2) The plants were grown in John Innes Potting Compost (No 1 or 2) in 4 cm diameter minipots. The test compounds were formulated either by bead milling with aqueous DISPERSOL T or as a solution in acetone or acetone/ethanol which was diluted to the required concentration immediately before use. […] The sprays were applied to maximum retention and the root drenches to a final concentration equivalent to approximately 40 ppm a.i. in dry soil. TWEEN 20 was added to give a final concentration of 0.05% when the sprays were applied to cereals.
(§3) For most of the tests the compounds were applied to the soil (roots) or to the foliage (by spraying) one or two days before the plant was inoculated with the disease. An exception was the test on Erysiphe graminis in which the plants were inoculated 24 hours before treatment. Foliar pathogens were applied by spray as zoosporangial suspensions onto the leaves of test plants. After inoculation, the plants were put into an appropriate environment to allow infection to proceed and then incubated until the disease was ready for assessment. The period between inoculation and assessment varied from four to fourteen days according to the disease and environment.
(§4) The disease level present (i.e. leaf area covered by actively sporulating disease) on each of the treated plants was recorded using the following assessment scale:
(§5) Each assessment was then expressed as a percentage of the level of disease present on the untreated control plants. This calculated value is referred to as a POCO (Percentage of Control) value. An example of a typical calculation is as follows:
(§6) Disease level on untreated control=90
(§7) Disese level on treated plant=30 [formula]
(§8) This calculated POCO value is then rounded to the nearest of the values in the 9-point assessment scale shown above. In this particular example, the POCO value would be rounded to 30. If the calculated POCO falls exactly mid-way between two of the points, it is rounded to the lower of the two values.

[4] = tested on: Septoria nodorum (Wheat); test: Foliar fungal disease test on plants: Septoria nodorum (Wheat); settings: one or two days before inoculation
Procedure: as §1, §2, §3, §4, §5, §6, §7, §8

[5] = tested on: Venturia inaequalis (Apples); test: Foliar fungal disease test on plants: Venturia inaequalis (Apples); settings: one or two days before inoculation
Procedure: as §1, §2, §3, §4, §5, §6, §7, §8

[6] = tested on: Puccinia recondita (Wheat); test: Foliar fungal disease test on plants: Puccinia recondita (Wheat)
Procedure: as §1
The plants were grown in John Innes Potting Compost (No 1 or 2) in 4 cm diameter minipots. The test compounds were formulated either by bead milling with aqueous DISPERSOL T or as a solution in acetone or acetone/ethanol which was diluted to the required concentration immediately before use. The formulations (100 ppm active ingredient) were sprayed on to the foliage or applied to the roots of the plants in the soil. The sprays were applied to maximum retention and the root drenches to a final concentration equivalent to approximately 40 ppm a.i. in dry soil. TWEEN 20 was added to give a final concentration of 0.05% when the sprays were applied to cereals.
as §3, with “For most of the tests the compounds were applied to the soil (roots) or to the foliage (by spraying) one or two days before the plant was inoculated with the disease.” left out
as §4, §5, §6, §7, §8

[7] = tested on: Thanatephorus cucumeries (Rice); test: Foliar fungal disease test on plants: Thanatephorus cucumeries (Rice); settings: one or two days before inoculation
Procedure: as §1, §2, §3, §4, §5, §6, §7, §8

[8] = tested on: Erysiphe graminis tritici (Wheat); test: Foliar fungal disease test on plants: Erysiphe graminis tritici (Wheat); settings: 100 ppm a.i. foliar spray or root drench (approx. 40 ppm in dry soil); plants inoculated 24 hours before treatment
Procedure: as §1, §2, §3, §4, §5, §6, §7, §8

[9] = 100 ppm a.i. foliar spray or root drench (approx. 40 ppm in dry soil)
[10] = 100 ppm a.i. foliar spray or root drench, plants inoculated with Puccinia recondita 48 hours before treatment

SMILES | POCO (Percentage of Control) disease level, Pyricularia oryzae (Rice) [1, 9] | POCO (Percentage of Control) disease level, Phytophthora infestans (Tomatoes) [2, 9] | POCO (Percentage of Control) disease level, Plasmopara viticola (Vines) [3, 9] | POCO (Percentage of Control) disease level, Septoria nodorum (Wheat) [4, 9] | POCO (Percentage of Control) disease level, Venturia inaequalis (Apples) [5, 9] | POCO (Percentage of Control) disease level, Puccinia recondita (Wheat) [6, 10] | POCO (Percentage of Control) disease level, Thanatephorus cucumeries (Rice) [7, 9] | POCO (Percentage of Control) disease level, Erysiphe graminis tritici (Wheat) [8] | POCO (Percentage of Control) disease level, Pyricularia oryzae (Rice) ([1]; 10 ppm foliar spray only) | POCO (Percentage of Control) disease level, Phytophthora infestans (Tomatoes) ([2]; 10 ppm foliar spray only) | POCO (Percentage of Control) disease level, Plasmopara viticola (Vines) ([3]; 10 ppm foliar spray only) | POCO (Percentage of Control) disease level, Septoria nodorum (Wheat) ([4]; 10 ppm foliar spray only) | POCO (Percentage of Control) disease level, Thanatephorus cucumeries (Rice) ([7]; 10 ppm foliar spray only) | POCO (Percentage of Control) disease level, Venturia inaequalis (Apples) ([5]; 10 ppm foliar spray only) | POCO (Percentage of Control) disease level, Puccinia recondita (Wheat) ([6]; 10 ppm foliar spray only, one or two days before inoculation)
COC=C(C(=O)OC)c1ccccc1COC(=O)N(C)c1ccccc1[N+](=O)[O-] [15 (2)] | 0 (0 = 0% disease present) | 60 (60 = 30.1-60% disease present) | 0 (0 = 0% disease present) | 5 (5 = 3.1-5% disease present) | 0 (0 = 0% disease present) | 0+ (0 = 0% disease present) |  |  |  |  |  |  |  |  | 
COC=C(C(=O)OC)c1ccccc1COC(=O)N(C)c1cc(F)ccc1F [27 (2)] | 0 (0 = 0% disease present) | 5 (5 = 3.1-5% disease present) | 0 (0 = 0% disease present) | 0 (0 = 0% disease present) | 0 (0 = 0% disease present) | 0+ (0 = 0% disease present) | 0 (0 = 0% disease present) |  |  |  |  |  |  |  | 
COC=C(C(=O)OC)c1ccccc1COC(=O)N(C)c1cccc([N+](=O)[O-])c1F [106 (2)] |  | 60 (60 = 30.1-60% disease present) | 0 (0 = 0% disease present) | 30 (30 = 20.1-30% disease present) | 0 (0 = 0% disease present) | 30+ (30 = 20.1-30% disease present) | 0 (0 = 0% disease present) | 0 (0 = 0% disease present) |  |  |  |  |  |  | 
COC=C(C(=O)OC)c1ccccc1COC(=O)Nc1ccccc1C#N [29 (1)] | 0 (0 = 0% disease present) |  | 20 (20 and 24 = 10.1-20% disease present) | 60 (60 = 30.1-60% disease present) | 0 (0 = 0% disease present) | 30+ (30 = 20.1-30% disease present) | 5 (5 = 3.1-5% disease present) | 5 (5 = 3.1-5% disease present) |  |  |  |  |  |  | 
COC=C(C(=O)OC)c1ccccc1COC(=S)Nc1ccccc1 [5 (6)] |  |  |  |  |  |  |  |  | 60 (60 = 30.1-60% disease present) | 90 (90 and 94 = 60.1-100% disease present) | 90 (90 and 94 = 60.1-100% disease present) | 90 (90 and 94 = 60.1-100% disease present) | 0 (0 = 0% disease present) | 0 (0 = 0% disease present) | 90 (90 and 94 = 60.1-100% disease present)
COC=C(C(=O)OC)c1ccccc1COC(=O)N(C)c1ccccc1C#N [29 (2)] | 0 (0 = 0% disease present) |  | 0 (0 = 0% disease present) | 30 (30 = 20.1-30% disease present) | 0 (0 = 0% disease present) | 20+ (20 and 24 = 10.1-20% disease present) | 30 (30 = 20.1-30% disease present) | 0 (0 = 0% disease present) |  |  |  |  |  |  | 
